Reference: paper PMC6272548, “Synthesis and Antiplatelet Activity of Antithrombotic Thiourea Compounds: Biological and Structure-Activity Relationship Studies” (Molecules, 2015)
Like-named read-outs stand apart in the source and are kept apart here.

Assays:
[1] = tested on: PGE2 production; assay: Measurement of plasma PGE2 levels by EIA in platelet-rich plasma; assay type: cell-based; conditions: human platelet-rich plasma
Experimental: The stable direct metabolite of PGE2, 13,14-dihydro-15-keto-Prostaglandin E2, is a known marker of the COX-1 activity. By the measurement of total levels of this PGE2 metabolite in human platelet-rich plasma, we evaluated the feasibility of antiplatelet N,N'-disubstituted thioureas to inhibit COX-1 activity in healthy platelets (Table 2).
Plasma samples containing 100 μM of each thiourea with antiplatelet activity were used to determine the concentrations of […], an index of in vitro COX-1 activity. Briefly, ozagrel (3 μL, 100 μM) were added to stop TXS activity and the aggregation were triggered with 10 μL of arachidonic acid (500 μM) in PRP samples containing each active derivative (100 μM) under stir conditions. After five minutes the suspensions were mixed with indomethacin (3 μL, 10 mM) stop-solution. By sonication for 1 min, platelets were disrupted and purification step were performed according to the manufacturer’s instructions (Cayman Chemical Co.). Plasma levels of PGE2 were measured in duplicate by competitive immunoassay using commercially available kits for EIA (PGE2 EIA Kit, Cayman Chemical Co.) according to the manufacturer’s instructions. A threshold of 25.75 ng/mL was defined as control plasma levels of PGE2 after platelet disrupture.

[2] = tested on: TXB2 production; assay: Measurement of plasma TXB2 levels by EIA in platelet-rich plasma; assay type: cell-based; conditions: for inhibition at 100 µM: Homo sapiens, Platelet; for Platelet Inhibition of TXB2 (%): 100 µM, human platelet-rich plasma
Experimental: Thromboxane B2 (TXB2), a stable TXA2 metabolite, is widely used as a prognostic risk marker of platelet activation in cardiovascular disease, which is closely related to COX-1 and Thromboxane Synthetase activity. Thus, the plasma levels of this metabolite were measured using an enzyme immunoassay (EIA) as described in the Experimental Section.
Plasma samples containing 100 μM of each thiourea with antiplatelet activity were used to determine the concentrations of thromboxane B2, an index of in vitro COX-1 activity. Briefly, 10 μL of arachidonic acid (500 μM) were added to platelet-rich plasma samples containing each active derivative (100 μM) under stir conditions. After five minutes the suspensions were mixed with 3 μL Indomethacin (10 mM) stop-solution. By sonication for 15 min, platelets were disrupted, and the resulting homogenates were centrifuged at 2000 g for 10 min to allow complete release of TXB2. Plasma levels of TXB2 were measured in duplicate by competitive immunoassay using commercially available kits from EIA Cayman (TXB2 EIA Kit, Cayman Chemical Co, Ann Arbor, MI, USA) according to the manufacturer’s instructions. A threshold of 25.75 ng/mL was defined as control plasma levels of TXB2 after platelet disrupture.

[3] = tested on: human platelets; assay: Platelet aggregation of human citrated platelet-rich plasma induced by arachidonic acid (turbidimetric); assay type: cell-based; conditions: for inhibition at 100 µM: healthy human platelets, read-out: Inhibition of AA-induced platelet aggregation; for Antiplatelet activity (in words): AA-induced platelet aggregation
Experimental: The human blood samples were obtained from adult volunteers, who abstained from the use of drugs or other substances that could interfere with the experiment for at least 15 days prior. […] The platelet rich (PRP) and poor (PPP) plasma were prepared by differential centrifugation and platelet aggregation was monitored using the turbidimetric method described by Born and Cross with an aggregometer 4-Pack® (Helena Laboratories, Beaumount, TX, USA). Different concentrations of the synthetic derivatives and the vehicle (DMSO 1%) were pre-incubated for 2 min before addition of the agonists (500 μM arachidonic acid and 5 μg/mL collagen). The platelet aggregation tests were performed in triplicate and the data were statistically analyzed.

[4] = tested on: Salmonella typhimurium; assay: Reverse mutagenesis to histidine prototrophy (Ames test), spot test; conditions: without metabolic activation; 10 µM, 100 µM and 500 µM
Experimental: This assay was performed as described by Maron and Ames, using the histidine Salmonella typhimurium auxotroph mutant strains TA97, TA98, TA100 and the […] TA102 (Table 5).

[5] = tested on: erythrocytes; assay: Hemolysis assay (erythrocyte lysis); assay type: cell-based, human; conditions: 3 h incubation; derivatives and ASA at 100 μM, TRITON at 1%
Experimental: (§1) Healthy erythrocytes were washed three times with PBS (pH 7.4) by centrifugation and suspended in the same buffer. All derivatives were incubated with the erythrocyte suspension for 3 h at 37 °C. The release of hemoglobin was determined by monitoring the optical density of the supernatant at 540 nm. The experiments were performed in triplicate and complete hemolysis (positive control) was determined using 1% Triton X-100. Hemolysis less than 10% indicated good hemocompatibility and non-toxicity of the molecules tested.

[6] = tested on: COX-1; design: method as in PMID 22263894; conditions: read-out: IC50 of non-anionic COX-1 inhibitors; cited from earlier work
[7] = tested on: Escherichia coli; assay: SOS chromotest, spot test; assay type: cell-based
Experimental: The SOS chromotest (spot test) was performed according to Quillardet and Hofnung, using Escherichia coli (Table 6) strains PQ35 and PQ37. One hundred microliters of an overnight culture of the E. coli strains are diluted in 5 mL of LB medium and the culture is incubated at 37 °C in a gyratory incubator up to a concentration of 2 × 10^8 bacteria/mL. Fractions of 0.1 mL of the culture are then distributed into test tube with top agar, and the mixture is poured immediately on M63 medium plate. A sample of 10 µL of the thiourea derivatives is spotted onto the center of the plate. After overnight incubation at 37 °C, the presence of a blue ring around a zone of inhibition indicates genotoxic activity.

[8] = Hemolysis assay (erythrocyte lysis); assay type: cell-based, human; conditions: human, erythrocyte suspension, pH 7.4; 3 h incubation; derivatives and ASA at 100 μM, TRITON at 1%
Experimental: as §1

[9] = Homo sapiens, Platelet, read-out: IC50, concentration that caused 50% inhibition of platelet aggregation, arachidonic acid-induced (500 μM), human platelet-rich plasma
[10] = read-out: IC50, concentration that caused 50% inhibition of platelet aggregation, arachidonic acid-induced (500 μM), human platelet-rich plasma

COc1ccc2c(c1)c(CC(=O)O)c(C)n2C(=O)c1ccc(Cl)cc1 [Indomethacin, reference compound]
inhibition at 100 µM [1]: 28 ± 1.6% | inhibition at 100 µM [2]: 99.8%

S=C(NCCc1ccccc1)Nc1ccc2c(c1)OCO2 [3p, N-(3,4-Methylenedioxyphenyl)-N'-(2-phenethyl)thiourea]
IC50 [3, 9]: 84.6 µM | inhibition at 100 µM ([3]; Platelet): 96 to 98% | IC50 [3, 10]: 84.5 µM | melting point: 126 to 128 °C | inhibition at 100 µM [1]: 7.9 ± 7.9% | Ames Test S. typhimurium TA97 [4]: - | Ames Test S. typhimurium TA98 [4]: - | Ames Test S. typhimurium TA100 [4]: - | Ames Test S. typhimurium TA102 [4]: - | Platelet Inhibition of TXB2 (%) [2]: 88.1 ± 5.5% | inhibition at 100 µM [2]: 88%

O=C(O)/C=C/c1ccc(Cn2ccnc2)cc1 [Ozagrel, reference compound]
inhibition at 100 µM [2]: 98 ± 2.8%

CCN(CC)C(=S)Nc1ccccc1 [3d, N-N-Diethyl-N'-phenylthiourea]
IC50 [3, 9]: 29.1 µM | inhibition at 100 µM ([3]; Platelet): 96 to 98% | inhibition at 100 µM [1]: 25.6 ± 5.9% | Ames Test S. typhimurium TA97 [4]: - | Ames Test S. typhimurium TA98 [4]: - | Ames Test S. typhimurium TA100 [4]: - | Ames Test S. typhimurium TA102 [4]: - | inhibition at 100 µM [2]: 74.2 ± 10.2%

Triton X-100
Hemolysis [5]: 100%

Nc1ccc(NC(=O)c2ccc(C(F)(F)F)cc2)nc1 [TFAP]
IC50 [6]: 0.8 µM

CCN(CC)C(S)=NCCc1ccccc1 [3m, N,N-diethyl-N'-(2-phenethyl)thiourea]
IC50 [3, 9]: 34.5 µM | inhibition at 100 µM ([3]; Platelet): 96 to 98% | IC50 [3, 10]: 34.5 ± 0.9 µM | melting point: 72 to 74 °C | inhibition at 100 µM [1]: 28.2 ± 5.9% | Ames Test S. typhimurium TA97 [4]: - | Ames Test S. typhimurium TA98 [4]: - | Ames Test S. typhimurium TA100 [4]: - | Ames Test S. typhimurium TA102 [4]: - | Platelet Inhibition of TXB2 (%) [2]: 91.2 ± 0.0% | inhibition at 100 µM [2]: 91%

CCN(CC)C(=S)NCc1ccccc1 [3i, N-Benzyl-N',N'-diethylthiourea]
inhibition at 100 µM ([3]; Platelet): 96 to 98% | IC50 [3, 10]: 86.2 µM | inhibition at 100 µM [1]: 21.1 ± 5% | Ames Test S. typhimurium TA97 [4]: - | Ames Test S. typhimurium TA98 [4]: - | Ames Test S. typhimurium TA100 [4]: - | Ames Test S. typhimurium TA102 [4]: - | inhibition at 100 µM [2]: 74.7 ± 5.5%

S=C(Nc1ccccc1)Nc1ccc2c(c1)OCO2 [3f, N-3,4-Methylenedioxyphenyl-N'-phenylthiourea]
Antiplatelet activity (in words) [3]: lack antiplatelet activity | IC50 [3, 9]: 322 ± 8.9 µM | melting point: 140 to 142 °C | Ames Test S. typhimurium TA97 [4]: - | Ames Test S. typhimurium TA98 [4]: - | Ames Test S. typhimurium TA100 [4]: - | Ames Test S. typhimurium TA102 [4]: -

CC(C)NC(=S)NCCc1ccccc1 [3k, N-Isopropyl-N'-(2-phenethyl)thiourea]
IC50 [3, 9]: 188 ± 10.7 µM | melting point: 126 to 128 °C | Ames Test S. typhimurium TA97 [4]: - | Ames Test S. typhimurium TA98 [4]: - | Ames Test S. typhimurium TA100 [4]: - | Ames Test S. typhimurium TA102 [4]: -

CC(=O)Oc1ccccc1C(=O)O [Aspirin, acetylsalicylic acid, reference compound]
SOS Chromotest E. coli PQ35 [7]: - | hemolysis at 3 h, 100 µM [8]: 2% | inhibition at 100 µM [1]: 47.5 ± 1.4% | Ames Test S. typhimurium TA97 [4]: - | Ames Test S. typhimurium TA98 [4]: - | Ames Test S. typhimurium TA100 [4]: - | Ames Test S. typhimurium TA102 [4]: - | inhibition at 100 µM [2]: 78.5 ± 5%

COc1cc(NC(=S)Nc2ccccc2)cc(OC)c1OC [3e, N-Phenyl-N'-(3,4,5-trimethoxyphenyl)thiourea]
Antiplatelet activity (in words) [3]: lack antiplatelet activity | IC50 [3, 9]: 251 ± 3.5 µM | melting point: 164 to 166 °C | Ames Test S. typhimurium TA97 [4]: - | Ames Test S. typhimurium TA98 [4]: - | Ames Test S. typhimurium TA100 [4]: - | Ames Test S. typhimurium TA102 [4]: -
